The results in this text go back to paper PMC11233931, “Remodeling tumor‐associated macrophage for anti‐cancer effects by rational design of irreversible inhibition of mitogen‐activated protein kinase‐activated protein kinase 2” (MedComm, 2024).

Common to all, as to assay: Eurofins kinase selectivity profile against 380 other human recombinant kinases (Table S2)
Holding throughout (format): biochemical

The target of test [1] is T1, 380 human recombinant protein kinases (Homo sapiens, UniProt Q9BYP7).
T1 construct: purchased Eurofins (Celle Lévescault)
T1 sequence (Q9BYP7 whole entry): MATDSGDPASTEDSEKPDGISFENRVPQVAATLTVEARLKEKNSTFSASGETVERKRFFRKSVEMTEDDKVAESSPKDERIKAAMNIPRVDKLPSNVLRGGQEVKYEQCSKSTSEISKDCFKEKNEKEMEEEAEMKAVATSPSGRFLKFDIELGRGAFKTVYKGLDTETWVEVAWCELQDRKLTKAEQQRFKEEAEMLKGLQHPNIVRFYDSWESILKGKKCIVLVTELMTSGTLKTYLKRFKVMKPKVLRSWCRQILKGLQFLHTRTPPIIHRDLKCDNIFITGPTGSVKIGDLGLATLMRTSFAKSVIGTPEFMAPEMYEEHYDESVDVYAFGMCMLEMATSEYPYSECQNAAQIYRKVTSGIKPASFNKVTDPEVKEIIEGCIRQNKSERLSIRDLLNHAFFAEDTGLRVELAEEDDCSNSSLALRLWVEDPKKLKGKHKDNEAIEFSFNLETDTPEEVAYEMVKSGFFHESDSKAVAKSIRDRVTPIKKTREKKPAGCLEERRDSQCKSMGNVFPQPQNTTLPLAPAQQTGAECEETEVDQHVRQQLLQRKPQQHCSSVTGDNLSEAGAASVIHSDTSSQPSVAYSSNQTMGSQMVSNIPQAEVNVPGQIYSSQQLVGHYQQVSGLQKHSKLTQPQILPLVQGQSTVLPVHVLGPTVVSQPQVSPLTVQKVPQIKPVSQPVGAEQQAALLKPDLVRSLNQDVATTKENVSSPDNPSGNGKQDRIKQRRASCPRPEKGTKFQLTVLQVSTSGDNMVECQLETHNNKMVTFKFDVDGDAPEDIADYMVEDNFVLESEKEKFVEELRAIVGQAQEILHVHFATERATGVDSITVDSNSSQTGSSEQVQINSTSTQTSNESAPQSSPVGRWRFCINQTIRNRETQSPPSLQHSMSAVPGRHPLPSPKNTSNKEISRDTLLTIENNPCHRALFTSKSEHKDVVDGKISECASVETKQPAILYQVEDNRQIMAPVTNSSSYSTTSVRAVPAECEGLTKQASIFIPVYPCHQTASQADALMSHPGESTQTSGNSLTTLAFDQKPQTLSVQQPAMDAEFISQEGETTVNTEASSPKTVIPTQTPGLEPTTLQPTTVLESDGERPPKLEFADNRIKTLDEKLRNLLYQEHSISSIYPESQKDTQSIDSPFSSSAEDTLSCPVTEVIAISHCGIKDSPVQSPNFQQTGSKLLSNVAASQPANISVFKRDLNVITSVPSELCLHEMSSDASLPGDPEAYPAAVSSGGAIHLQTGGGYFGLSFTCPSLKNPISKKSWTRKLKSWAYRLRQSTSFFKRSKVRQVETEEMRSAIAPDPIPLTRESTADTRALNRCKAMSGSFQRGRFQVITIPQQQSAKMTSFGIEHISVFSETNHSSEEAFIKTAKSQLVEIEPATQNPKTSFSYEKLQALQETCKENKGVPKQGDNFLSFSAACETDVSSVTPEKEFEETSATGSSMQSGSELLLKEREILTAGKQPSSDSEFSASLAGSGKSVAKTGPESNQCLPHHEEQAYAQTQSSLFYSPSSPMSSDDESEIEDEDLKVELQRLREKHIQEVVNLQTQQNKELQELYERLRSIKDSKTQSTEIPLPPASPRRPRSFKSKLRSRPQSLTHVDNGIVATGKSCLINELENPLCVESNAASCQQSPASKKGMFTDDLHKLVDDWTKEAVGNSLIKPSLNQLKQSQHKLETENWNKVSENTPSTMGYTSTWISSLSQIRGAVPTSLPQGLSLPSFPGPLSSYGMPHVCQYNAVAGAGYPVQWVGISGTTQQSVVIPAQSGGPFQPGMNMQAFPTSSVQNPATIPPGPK
As to conditions: WNK3(h), read-out: Inhibition rate (%). The method in brief:
(§1)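 Profiling against 380 human recombinant kinases carried out by Eurofins at various compound concentrations.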

For test [2], the target named is T2, 380 human recombinant protein kinases (Homo sapiens, UniProt O94806).
T2 construct: purchased Eurofins (Celle Lévescault)
T2 sequence (O94806 1-890): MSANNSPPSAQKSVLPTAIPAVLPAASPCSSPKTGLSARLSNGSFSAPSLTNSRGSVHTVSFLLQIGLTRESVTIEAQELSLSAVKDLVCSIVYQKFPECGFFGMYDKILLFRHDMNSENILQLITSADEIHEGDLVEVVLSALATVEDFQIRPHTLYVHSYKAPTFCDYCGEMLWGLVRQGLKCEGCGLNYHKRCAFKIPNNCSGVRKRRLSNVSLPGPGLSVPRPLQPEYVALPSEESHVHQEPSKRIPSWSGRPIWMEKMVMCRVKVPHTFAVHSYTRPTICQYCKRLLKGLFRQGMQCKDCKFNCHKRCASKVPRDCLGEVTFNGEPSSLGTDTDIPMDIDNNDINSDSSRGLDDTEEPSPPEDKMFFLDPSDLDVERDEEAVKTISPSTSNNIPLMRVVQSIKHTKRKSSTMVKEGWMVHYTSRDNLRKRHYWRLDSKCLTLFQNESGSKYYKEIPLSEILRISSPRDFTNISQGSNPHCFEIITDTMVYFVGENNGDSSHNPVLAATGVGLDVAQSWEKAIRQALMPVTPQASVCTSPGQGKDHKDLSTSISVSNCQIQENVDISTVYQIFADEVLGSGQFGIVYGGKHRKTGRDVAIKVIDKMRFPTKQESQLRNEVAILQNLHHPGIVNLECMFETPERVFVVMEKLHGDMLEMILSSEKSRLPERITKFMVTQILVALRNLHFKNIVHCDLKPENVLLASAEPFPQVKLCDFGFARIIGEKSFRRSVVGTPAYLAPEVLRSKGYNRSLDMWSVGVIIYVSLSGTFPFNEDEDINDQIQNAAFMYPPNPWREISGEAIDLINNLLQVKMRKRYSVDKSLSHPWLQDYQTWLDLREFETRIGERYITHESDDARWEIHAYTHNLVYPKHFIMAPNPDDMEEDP
As to conditions: PKD3(h), read-out: Inhibition rate. Put shortly:
as §1

Test [3] has as its target T3, 380 human recombinant protein kinases (Homo sapiens, UniProt Q8N4C8).
T3 construct: purchased Eurofins (Celle Lévescault)
To be noted: MINK(h), read-out: Inhibition rate. The method in brief:
as §1

Test [4] concerns the target T4, 380 human recombinant protein kinases (Homo sapiens, UniProt O00418).
T4 construct: purchased Eurofins (Celle Lévescault)
T4 sequence (O00418 1-725): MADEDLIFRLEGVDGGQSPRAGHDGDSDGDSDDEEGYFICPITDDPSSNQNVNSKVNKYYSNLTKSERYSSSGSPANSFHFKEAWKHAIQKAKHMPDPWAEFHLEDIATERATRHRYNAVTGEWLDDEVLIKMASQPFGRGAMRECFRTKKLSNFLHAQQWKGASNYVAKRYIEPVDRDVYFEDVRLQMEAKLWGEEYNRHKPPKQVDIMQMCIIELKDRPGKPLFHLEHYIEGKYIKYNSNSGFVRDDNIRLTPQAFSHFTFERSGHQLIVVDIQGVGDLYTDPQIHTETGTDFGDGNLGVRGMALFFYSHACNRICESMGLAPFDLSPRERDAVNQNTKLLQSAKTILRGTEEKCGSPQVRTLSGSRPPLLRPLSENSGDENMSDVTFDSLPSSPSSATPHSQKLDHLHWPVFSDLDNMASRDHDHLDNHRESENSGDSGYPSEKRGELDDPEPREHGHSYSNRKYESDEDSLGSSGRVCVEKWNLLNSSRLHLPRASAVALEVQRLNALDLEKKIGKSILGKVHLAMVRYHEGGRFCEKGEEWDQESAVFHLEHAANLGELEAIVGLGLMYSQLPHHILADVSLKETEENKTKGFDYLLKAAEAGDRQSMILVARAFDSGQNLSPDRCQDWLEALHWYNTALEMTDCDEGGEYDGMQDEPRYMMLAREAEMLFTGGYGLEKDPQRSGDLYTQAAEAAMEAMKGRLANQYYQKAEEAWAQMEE
To be noted: eEF-2K(h), read-out: Inhibition rate. The method in brief: as §1

In test [5] the target is T5, 380 human recombinant protein kinases (Homo sapiens, UniProt P12931).
T5 construct: purchased Eurofins (Celle Lévescault)
T5 sequence (P12931 whole entry): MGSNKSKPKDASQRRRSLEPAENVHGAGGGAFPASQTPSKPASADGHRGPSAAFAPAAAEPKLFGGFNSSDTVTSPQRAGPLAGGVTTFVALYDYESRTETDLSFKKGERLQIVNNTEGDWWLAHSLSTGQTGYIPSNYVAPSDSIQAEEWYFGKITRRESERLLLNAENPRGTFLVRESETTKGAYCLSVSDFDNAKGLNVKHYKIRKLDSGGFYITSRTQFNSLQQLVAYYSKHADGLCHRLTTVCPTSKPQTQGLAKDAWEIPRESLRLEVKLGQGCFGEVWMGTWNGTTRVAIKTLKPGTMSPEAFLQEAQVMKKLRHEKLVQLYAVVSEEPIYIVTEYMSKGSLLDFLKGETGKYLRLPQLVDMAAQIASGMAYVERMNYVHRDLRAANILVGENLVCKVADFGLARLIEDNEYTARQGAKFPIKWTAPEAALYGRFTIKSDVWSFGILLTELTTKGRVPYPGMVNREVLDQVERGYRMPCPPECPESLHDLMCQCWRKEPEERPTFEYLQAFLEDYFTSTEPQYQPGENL
As to conditions: for inhibition at 0.01 µM: 10 nM; for inhibition at 0.1 µM: 100 nM; for inhibition at 1 µM: 1000 nM. The method in brief:
as §1

[6] abbreviates: Src(1-530)(h), read-out: Inhibition rate (%).
Setting [7] is: cSRC(h), read-out: Inhibition rate.

The inhibition is the change of the read-out against control, counted positive when it falls.

Like-named read-outs stand apart in the source and are kept apart here.

T3 sequence (Q8N4C8 whole entry): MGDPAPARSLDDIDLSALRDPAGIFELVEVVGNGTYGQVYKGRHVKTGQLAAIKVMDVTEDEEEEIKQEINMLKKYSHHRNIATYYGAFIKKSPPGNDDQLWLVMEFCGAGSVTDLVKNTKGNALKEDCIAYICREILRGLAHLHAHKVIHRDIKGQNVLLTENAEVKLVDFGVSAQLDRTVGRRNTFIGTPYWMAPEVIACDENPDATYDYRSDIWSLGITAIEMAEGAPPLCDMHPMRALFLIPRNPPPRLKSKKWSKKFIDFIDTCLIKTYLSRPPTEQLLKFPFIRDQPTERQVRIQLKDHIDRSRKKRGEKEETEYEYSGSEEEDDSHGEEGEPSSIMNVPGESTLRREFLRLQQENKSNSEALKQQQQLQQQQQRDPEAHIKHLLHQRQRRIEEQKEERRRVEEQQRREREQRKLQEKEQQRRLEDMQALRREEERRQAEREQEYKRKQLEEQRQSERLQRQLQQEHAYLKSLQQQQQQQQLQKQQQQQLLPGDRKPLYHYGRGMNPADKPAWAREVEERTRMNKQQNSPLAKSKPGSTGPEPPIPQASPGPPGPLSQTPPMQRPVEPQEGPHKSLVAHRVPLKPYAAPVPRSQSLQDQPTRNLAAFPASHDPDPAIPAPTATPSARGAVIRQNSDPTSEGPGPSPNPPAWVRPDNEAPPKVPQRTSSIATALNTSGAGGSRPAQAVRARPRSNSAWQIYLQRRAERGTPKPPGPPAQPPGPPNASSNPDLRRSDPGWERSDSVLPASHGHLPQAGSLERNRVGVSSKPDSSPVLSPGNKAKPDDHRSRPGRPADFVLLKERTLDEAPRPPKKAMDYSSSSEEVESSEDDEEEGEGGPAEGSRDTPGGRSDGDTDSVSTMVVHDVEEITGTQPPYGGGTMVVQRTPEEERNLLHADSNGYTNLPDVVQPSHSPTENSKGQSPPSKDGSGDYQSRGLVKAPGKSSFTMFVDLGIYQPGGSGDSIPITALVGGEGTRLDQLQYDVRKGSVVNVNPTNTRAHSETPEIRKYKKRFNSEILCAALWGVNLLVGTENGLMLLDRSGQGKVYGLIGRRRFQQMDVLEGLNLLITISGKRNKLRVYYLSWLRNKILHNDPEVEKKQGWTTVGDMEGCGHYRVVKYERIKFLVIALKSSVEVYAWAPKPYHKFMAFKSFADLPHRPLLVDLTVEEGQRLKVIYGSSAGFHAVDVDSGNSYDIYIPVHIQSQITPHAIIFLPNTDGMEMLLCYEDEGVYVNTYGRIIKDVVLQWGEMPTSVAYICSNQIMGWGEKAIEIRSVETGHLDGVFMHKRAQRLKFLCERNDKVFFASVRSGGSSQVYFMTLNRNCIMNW

Take `C=CC(=O)Nc1cc(-c2cc(-c3cc4c([nH]3)CCNC4=O)ccn2)ccc1OC(F)(F)F` [compound 11]: the inhibition at 0.01 µM in test [1] (10 nM) was 0%; in test [2] (10 nM), 4%; in test [3] (10 nM), -10%; in test [4] (10 nM), -4%; in test [5] (setting [6]), 6%; in test [5] (setting [7]), 1%. Also, the inhibition at 0.1 µM was 7% in test [1] (100 nM); 15% in test [2] (100 nM); 3% in test [3] (100 nM); -10% in test [4] (100 nM); 5% in test [5] (setting [6]); 8% in test [5] (setting [7]). The inhibition at 1 µM is 9% in test [1] (1000 nM); 55% in test [2] (1000 nM); 31% in test [3] (1000 nM); -27% in test [4] (1000 nM); -1% in test [5] (setting [6]); 10% in test [5] (setting [7]).
